Measurements: PMC7356761 (Molecules, 2020)

Assays:
[1] = biological target: EGFR-TK with L858R/T790M mutation (Homo sapiens, UniProt P00533, L858R/T790M); test: EGFR-TK inhibition assay (ADP-Glo), L858R/T790M; type: biochemical
[2] = test system: H3255 cells (EGFR L858R); test: Cell viability assay (WST-8), H3255; type: cell-based; details: Homo sapiens, NCI-H3255, WST-8, 48 h
[3] = biological target: wild-type EGFR-TK (Homo sapiens, UniProt P00533); test: EGFR-TK inhibition assay (ADP-Glo), wild-type; type: biochemical; details: EGFR tyrosine kinase wild-type; read-out: IC50 Value, Wild-Type (WT)
[4] = test system: H441 cells (wild-type EGFR); test: Cell viability assay (WST-8), H441; details: WST-8, 48 h
[5] = test system: H1975 cells (EGFR L858R/T790M); parameters: method as in PMID 27827863; details: previous study ref 25; cited from earlier work

IC50 ([1]; EGFR tyrosine kinase L858R/T790M) [nM]	SI (WT: L858R/T790M) ([1]; selectivity index, wild-type IC50 to L858R/T790M IC50)	IC50 [2] [nM]	IC50 [3] [nM]	IC50 [4] [nM]	SMILES	IC50 [5] [nM]
310 ± 150	>32	500 ± 210	> 10000	1840 ± 440	C=CC(=O)Nc1cc(I)cc(Nc2nc(Nc3ccc(N4CCN(C(C)=O)CC4)cc3OC)ncc2C(F)(F)F)c1 [compound 10, N-(3-{[2-({4-[4-acetylpiperazin-1-yl]-2-methoxyphenyl}amino)-5-(trifluoromethyl)pyrimidin-4-yl]amino}-5-iodophenyl)acrylamide]	
		150 ± 20		260 ± 40	C=CC(=O)Nc1cccc(Nc2nc(Nc3ccc(N4CCN(C(C)=O)CC4)cc3OC)ncc2C(F)(F)F)c1 [CO-1686, Rociletinib, reference compound]	137
